According to patent US20080031968A1, “Methods for increasing cellular energy expenditure” (priority 2005, published 2008):

Legend:
[1] = target: T1, TGR5 (Homo sapiens, UniProt Q8TDU6); test: cAMP response element (CRE)-luciferase reporter assay with TGR5; assay type: cell-based; details: cells co-transfected with TGR5 expression plasmid and CRE-driven luciferase reporter
T1 construct: expressed in transfected cells
T1 sequence (Q8TDU6 1-330): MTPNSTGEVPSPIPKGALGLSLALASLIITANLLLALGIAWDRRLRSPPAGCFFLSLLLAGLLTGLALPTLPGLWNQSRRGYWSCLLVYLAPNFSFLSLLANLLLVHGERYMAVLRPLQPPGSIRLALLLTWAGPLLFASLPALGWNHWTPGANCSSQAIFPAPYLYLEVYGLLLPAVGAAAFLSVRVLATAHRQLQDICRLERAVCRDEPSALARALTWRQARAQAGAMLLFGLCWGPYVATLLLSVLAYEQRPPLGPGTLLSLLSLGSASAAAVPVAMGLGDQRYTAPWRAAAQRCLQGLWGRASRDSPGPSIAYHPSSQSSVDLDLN
Source text: Since a synthetic FXRα agonist was unable to phenocopy the effects of BAs on energy expenditure, we focused our attention on FXRα-independent signaling events stimulated by BAs. […] We used a cAMP response element (CRE)-luciferase reporter assay to confirm that TGR5 is a BA receptor.
We used quantitative RT-PCR to measure the expression of D2 and TGR5 mRNAs in selected mouse tissues.

[2] = test system: BAT cells; test: Isolated mouse BAT cells, D2 mRNA, D2 activity and cAMP; assay type: cell-based
Procedure: An OGTT was performed in animals that were fasted overnight. Glucose was administered by gavage at a dose of 2 g/kg. An IPITT was done in 4 h fasted animals. Insulin was injected at a dose of 0.75 U/kg. Glucose quantification was done with the Maxi Kit Glucometer 4 (Bayer Diagnostic, Puteaux, France) or Glucose RTU (bioMérieux Inc., Marcy l'Etoile, France). Plasma insulin concentrations were measured using ELISA (Cristal Chem Inc., Downers Grove, Ill.). Nonesterified fatty acids, triglycerides, ketone bodies, BA and total cholesterol were determined by enzymatic assays (Roche, Mannheim, Germany). cAMP was measured using the cAMP-Screen system (Applied Biosystems, Bedford, Mass.).

[3] = test system: HSMM; test: D2 activity in human skeletal muscle myoblasts; assay type: cell-based; details: 16 h incubation
Procedure: HSMM were obtained from Cambrex (Walkersville, Md.) and were cultured according to the suppliers instructions. D2 activity measurements were performed after a 16 h incubation with the indicated compounds. For the cAMP measurements, cells were preincubated 12 h in Opti-MEM (Life Technologies, Cergy Pontoise, France), supplemented with 1 mM IBMX. Then medium was changed and cells were incubated for another 1 h in Opti-MEM with 1 mM IBMX, after which the medium was replaced for Opti-MEM with 1 mM IBMX and the indicated compounds. After 30 minutes the cells were lysed for cAMP analysis.

[4] = test system: HSMM; test: cAMP levels in human skeletal muscle myoblasts; assay type: cell-based; details: 1 mM IBMX, 30 minutes
Procedure: HSMM were obtained from Cambrex (Walkersville, Md.) and were cultured according to the suppliers instructions. […] For the cAMP measurements, cells were preincubated 12 h in Opti-MEM (Life Technologies, Cergy Pontoise, France), supplemented with 1 mM IBMX. Then medium was changed and cells were incubated for another 1 h in Opti-MEM with 1 mM IBMX, after which the medium was replaced for Opti-MEM with 1 mM IBMX and the indicated compounds. After 30 minutes the cells were lysed for cAMP analysis.

[5] = target: T1, TGR5; test: CHO cells transiently expressing TGR5 and pCRE-Luc; assay type: cell-based; details: different concentrations, almost as much cAMP accumulation as with 10 μM forskolin
Source text: These two steroids constitute about 2 percent by weight of gum guggul.

[6] = test system: HSMM; test: Oxygen consumption and extracellular acidification rate in HSMM; details: for cellular oxygen consumption: 48 or 72 hours; for extracellular acidification rate: after 72 hours of treatment
[7] = test system: C57BL/6J mice; test: LXR agonist-induced lipogenesis in C57BL/6J mice with or without CA; assay type: in vivo, mouse; details: C57BL/6J mice, chow diet, gavage 30 mg/kg
Procedure: Male C57BL/6J, KK-Ay, and ob/ob (C57BL/6J background) mice, 6-10 weeks of age, were obtained from Elevage Janvier (Le Genest St. Isle, France), CLEA Japan Inc. (Tokyo, Japan), and The Jackson Laboratory (Bar Harbor, Me., USA), respectively. All mice were maintained in a temperature-controlled (23° C.) facility with a 12-hour light/dark cycle and were given free access to food and water. The study protocols were approved by the institutional review boards. The body weight and food intake were measured every second day. The control and high-fat diet was obtained from UAR (Villemoisson sur Orge, France). […] The mice were fasted 4 hours before harvesting blood for subsequent lipid measurements, and tissues for RNA isolation, lipid measurements, and histology.
Mice were gavaged with the LXR agonist T0901317 or vehicle, and the different diets were continued for one more day, after which the mice were sacrificed.

[8] = test system: mouse primary hepatocytes; test: Endogenous SREBP-1c and target gene expression in mouse primary hepatocytes; assay type: cell-based
Procedure: Hepatocytes were isolated from wild-type male mice 8-10 weeks old. Animals were anesthetized with CO2 and livers were perfused with 40 ml Liver Perfusion Medium (Invitrogen) followed by 30 ml Liver Digestion Medium (Invitrogen), both at a flow rate of 5 ml/min. Isolated hepatocytes were resuspended in DMEM supplemented with 20% (v/v) FCS, 100 units/ml penicillin, and 100 units/ml streptomycin, and placed in plates coated with collagen IV at a density of 1×10^5 cells/cm^2. After a 4-hour incubation at 37° C. in an atmosphere of 5% CO2, the medium was changed to DMEM supplemented with 10% (v/v) FCS, 100 units/ml penicillin, 100 units/ml streptomycin, 0.5 μM dexamethasone (Sigma-Aldrich), and 0.4 μM insulin (Sigma-Aldrich). After 16 hours, the medium was changed into medium supplemented with CDCA and ligands for LXR and RXR. After an additional 18-hour incubation, cells were harvested for RNA isolation.
Total RNA was extracted from frozen tissue samples or cells using the RNeasy kit (QIAGEN, Courtaboeuf, France). cDNA was synthesized from total RNA with the SuperScript First-Strand Synthesis System (Invitrogen) and random hexamer primers. The real-time PCR measurement of individual cDNAs was performed using SYBR green dye to measure duplex DNA formation with the LightCycler System (Roche Diagnostics, Meylan, France). The sequences of the primer sets used are available online at http://www-igbmc.ustrasbg.fr/Departments/Dep_V/Dep_VA/Publi/Paper.html.

[9] = test system: mouse SREBP-1c promoter; test: SREBP-1c promoter luciferase reporter assay in McA-RH7777 cells; assay type: cell-based; details: McA-RH7777 rat hepatoma cells, LXRα transfection and/or LXR and RXR agonists
Procedure: The LXR response elements in pSREBP-1c324-Luc were mutated for promoter analysis using the Quick Change Site-Directed Mutagenesis Kit (Stratagene, La Jolla, Calif., USA).
The rat hepatoma cell line McA-RH7777 was obtained from ATCC (Manassas, Va., USA). […] Transfections were performed in 96-well plates using Lipofectamine 2000 (Invitrogen, Cergy Pontoise, France). Each well contained 64 ng luciferase reporter and 4 ng of β-galactosidase expression plasmid. We transfected 16 ng RXRα, 16 ng LXRα, 16 ng LRH-1, 32 ng SHP expression plasmids, or the corresponding empty expression vectors. After 6 hours of incubation with the DNA-lipofectamine complexes, the transfection medium was exchanged for medium with or without the indicated ligands. Ligands for LXR and RXR were dissolved in ethanol or DMSO and added to the cells in DMEM supplemented with 10% lipoprotein-deficient serum. To suppress SREBP-1c activation by processing, leading to feed-forward induction of SREBP-1c expression, the medium used for the SREBP-1c promoter study was also supplemented with 10 μg/ml cholesterol and 1 μg/ml 25-hydroxycholesterol. Luciferase measurements were normalized to β-galactosidase activity.

[10] = test system: BAT of C57BL/6J mice; test: BAT gene expression by microarray and Q-RT-PCR; assay type: in vivo, mouse; details: high fat diet mixed with CA or CDCA for 9 days
Procedure: For microarray analysis, RNA was isolated from BAT using the RNeasy mini kit (QIAGEN, Courtaboeuf, France). Equal amounts of RNA from mice in each group were pooled (n=3 or 4 mice) and used for cDNA synthesis. After second-strand cDNA synthesis (Life Technologies, Cergy Pontoise, France), in vitro transcription was performed with biotinylated UTP and CTP (Enzo Diagnostics, Farmingdale, N.Y.). Fragmented cRNA samples were hybridized to the Affymetrix MOE430A microarray. The raw data was analyzed using the Microarray Suite Software version 5.0 (MAS5.0, Affymetrix, Santa Clara, Calif.).

[11] = test system: humans; details: treatment of cholesterol gallstones; cited from earlier work
[12] = test system: humans; details: cited from earlier work

Q: Which luciferase expression [1] does the source give for `C[C@H](CCC(=O)NCCS(=O)(=O)O)[C@H]1CC[C@H]2[C@@H]3[C@H](O)C[C@@H]4C[C@H](O)CC[C@]4(C)[C@H]3C[C@H](O)[C@]12C` [TCA, taurocholic acid] here?
A: increased luciferase expression in a dose-dependent manner

Q: And the cAMP levels ([2]; BAT cells)?
A: most effective

Q: And the “D2 mRNA and activity” value ([2]; BAT cells from mice fed control or high fat diet)?
A: dose dependently increased

Q: What about the D2 activity [3] of the same compound?
A: significant and dose dependent induction

Q: And the cAMP levels [4]?
A: increased cAMP levels in a dose-dependant fashion

Q: And the reporter activity [5]?
A: dramatically increased

Q: And the cellular oxygen consumption [6]?
A: elevated

Q: What about the extracellular acidification rate [6] of the same compound?
A: increase

Q: For `O=S(=O)(c1ccccc1)N(CC(F)(F)F)c1ccc(C(O)(C(F)(F)F)C(F)(F)F)cc1` [T0901317], which “liver weight and serum TGs” value [7] is on record?
A: induction

Q: What does the source list for `N[C@@H](Cc1cc(I)c(Oc2ccc(O)c(I)c2)c(I)c1)C(=O)O` [T3, 3,5,3′-triiodothyronine]?
A: cellular oxygen consumption [6]: elevated; extracellular acidification rate [6]: increase

Q: Which cAMP levels [4] does the source give for `C[C@H](CCC(=O)NCCS(=O)(=O)O)[C@H]1CC[C@H]2[C@@H]3[C@H](O)C[C@@H]4C[C@H](O)CC[C@]4(C)[C@H]3CC[C@]12C` [TCDCA, tauroCDCA] here?
A: did not increase

Q: With `C[C@H](CCC(=O)O)[C@H]1CC[C@H]2[C@@H]3[C@H](O)C[C@@H]4C[C@H](O)CC[C@]4(C)[C@H]3CC[C@]12C` [CDCA, chenodeoxycholic acid] as the compound, how does the “expression of lipogenic target genes of SREBP-1c (SCD-1, AceCS, ME)” value ([8]; RXR and LXR ligands plus CDCA) read?
A: decreased likewise

Q: And the SHP expression ([8]; addition of CDCA)?
A: increased

Q: What about the “endogenous SREBP-1c expression” value ([8]; induced by RXR and LXR ligands, increasing amounts of CDCA, 18-hour incubation) of the same compound?
A: decreased dose-dependently

Q: And the “increase of SREBP-1c promoter activity” value [9]?
A: attenuated

Q: And the “genes involved in control of energy expenditure incl. D2 in BAT (microarray)” value [10]?
A: upregulated

Q: What about the cAMP levels [4] of the same compound?
A: increased cAMP levels in a dose-dependant fashion

Q: And the hypertriglyceridemia [11]?
A: reduce hypertriglyceridemia

Q: And the hepatotoxicity [12]?
A: significant hepatotoxicity

Q: And the LDL cholesterol ([12]; decrease in LDL-R activity)?
A: raise LDL cholesterol
